The values that follow are results of earlier work, collected in patent publication EP0501250A1, “Fucose-marked batracylin derivatives” (BAYER AG, priority 1991, dated 1992).

Series [1] deals with Colon-38-Modell. Particulars: Colon-38-Modell an der Maus.
The conditions of series [2]: prior-art statement.

Consider `Nc1ccc2c(c1)CN1C(=O)c3ccccc3C1=N2` [Batracylin], for which the Antitumorwirkung entry in series [1] was “ausgezeichnete Antitumorwirkung”. Moreover, the “Löslichkeit in wasserhaltigen Lösungsmitteln” value in series [2] is “geringe Löslichkeit”.
